Patent publication US9556201B2, “Bicyclic pyridines and analogs as sirtuin modulators” (GLAXOSMITHKLINE LLC, priority 2009, dated 2017)

Molecular target: T1, SIRT1 (Homo sapiens, UniProt Q96EB6)
T1 sequence (Q96EB6 1-747): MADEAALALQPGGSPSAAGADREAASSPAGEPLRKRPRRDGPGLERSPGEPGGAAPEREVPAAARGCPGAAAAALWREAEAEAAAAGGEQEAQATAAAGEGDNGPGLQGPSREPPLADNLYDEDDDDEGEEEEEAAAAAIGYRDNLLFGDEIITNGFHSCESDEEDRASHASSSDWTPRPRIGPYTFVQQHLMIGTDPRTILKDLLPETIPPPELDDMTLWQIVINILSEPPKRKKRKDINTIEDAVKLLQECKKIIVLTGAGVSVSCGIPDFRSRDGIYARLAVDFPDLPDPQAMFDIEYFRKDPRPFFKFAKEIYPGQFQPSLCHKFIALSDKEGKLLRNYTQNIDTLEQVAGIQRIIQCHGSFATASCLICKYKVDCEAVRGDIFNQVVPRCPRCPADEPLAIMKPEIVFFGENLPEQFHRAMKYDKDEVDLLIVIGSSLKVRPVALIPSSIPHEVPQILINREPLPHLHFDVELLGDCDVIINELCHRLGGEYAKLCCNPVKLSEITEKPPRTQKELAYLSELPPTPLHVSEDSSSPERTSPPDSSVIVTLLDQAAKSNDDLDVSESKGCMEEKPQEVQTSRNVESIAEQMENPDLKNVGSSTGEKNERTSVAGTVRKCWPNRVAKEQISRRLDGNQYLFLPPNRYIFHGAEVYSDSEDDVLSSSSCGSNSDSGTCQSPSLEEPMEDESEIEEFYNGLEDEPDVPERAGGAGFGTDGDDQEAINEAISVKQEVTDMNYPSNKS
Experiment: Mass spectrometry based assay to identify modulators of SIRT1 activity (deacetylation of p53-based acetylated peptide substrate)
Type: biochemical
Details: for Emax: 25 min, read-out: % FOLD ACT. (percent maximum fold activation); for Emax / EC1.5: SIRT1 activation
Outline: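 Deacetylation of a modified p53 acetyl-lysine peptide ([…], 5TMR-labelled, Nle for Met) by 10 nM N-His SIRT1 with 120 μM βNAD+, pH 8, 25 min, 25 °C. Substrate and product masses measured by MS after formic acid quench; nicotinamide defines maximal inhibition.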

| SMILES | EC1.5 (concentration giving 1.5-fold activation) [µM] | Emax [%] | EC1.5 |
| --- | --- | --- | --- |
| CC1(C)CN(C(=O)Nc2ccccn2)c2nc(-c3cccc(F)c3)ccc2O1 [Compound 760] | 1 to 25 | > 200 | – |
| Cc1ccc(NC(=O)N2CCOc3ccc(-c4cccc(C(F)(F)F)c4)nc32)c(C)n1 [Compound 552] | – | > 200 | B (EC1.5 1-25 μM) |
| CN1C(=O)CN(C(=O)Nc2ncco2)c2nc(-c3cccc(C(F)(F)F)c3)ccc21 [Compound 523] | – | ≤ 200 | C (EC1.5>25 μM) |
| Cc1cc(-c2ccc3c(n2)N(C(=O)Nc2cc(C)nc(C)c2)CCCO3)ccn1 [Compound 657] | – | > 200 | B (EC1.5 1-25 μM) |
| O=C(Nc1ccncc1)N1CCOc2c(N3CCNCC3)nc(-c3cccc(F)c3)nc21 [Compound 738, 2-(3-fluorophenyl)-4-(piperazin-1-yl)-N-(pyridin-4-yl)-6H-pyrimido[5,4-b][1,4]oxazine-8(7H)-carboxamide] | > 25 | ≤ 200 | – |
| CN1C(=O)CN(C(=O)Nc2ccncn2)c2nc(-c3cccc(C(F)(F)F)c3)ccc21 [Compound 526] | – | > 200 | B (EC1.5 1-25 μM) |
| Cc1cnc(CNC(=O)N2CCOc3ccc(-c4cccc(C(F)(F)F)c4)nc32)cn1 [Compound 504] | – | ≤ 200 | C (EC1.5>25 μM) |
| O=C(Nc1ccncc1)N1CCCOc2ccc(-c3cccc(F)c3)nc21 [Compound 550] | – | > 200 | B (EC1.5 1-25 μM) |
| Cc1cc(NC(=O)N2CCOc3ccc(-c4ccnn4C)nc32)cc(C)n1 [Compound 575] | – | > 200 | B (EC1.5 1-25 μM) |
| CN1C(=O)CN(C(=O)NC2CCOC2=O)c2nc(-c3cccc(C(F)(F)F)c3)ccc21 (centres unmarked) [Compound 522] | – | ≤ 200 | C (EC1.5>25 μM) |
| Cc1cncc(NC(=O)N2CCCOc3ccc(-c4ccc(C)nc4)nc32)c1 [Compound 636] | – | ≤ 200 | C (EC1.5>25 μM) |
| O=C(Nc1ccncc1)N1CCOc2cnc(-c3cccc(N4CCOCC4)c3)nc21 [Compound 721] | 1 to 25 | > 200 | – |
| O=C(Nc1ccncn1)N1CCOc2c(N3CCOCC3)nc(-c3cccc(F)c3)nc21 [Compound 758] | > 25 | ≤ 200 | – |
| O=C(Nc1ccncn1)N1CCCOc2ccc(-c3cccc(F)c3)nc21 [Compound 580] | – | > 200 | B (EC1.5 1-25 μM) |
| O=C(Nc1ccncc1F)N1CCC(F)(F)c2ccc(-c3cccc(C(F)(F)F)c3)nc21 [Compound 746] | 1 to 25 | ≤ 200 | – |
| Cc1cc(NC(=O)N2CCCOc3ccc(-c4ccnc(C)c4)nc32)ccn1 [Compound 656] | – | > 200 | B (EC1.5 1-25 μM) |
| Cn1ccc(NC(=O)N2CCCOc3ccc(-c4cccc(Cl)c4)nc32)n1 [Compound 705] | 1 to 25 | > 200 | – |
| Cc1cccnc1NC(=O)N1CCOc2ccc(-c3cccc(C(F)(F)F)c3)nc21 [Compound 569] | – | ≤ 200 | C (EC1.5>25 μM) |
| O=C1CCN(C(=O)Nc2ccccn2)c2nc(-c3cccc(C(F)(F)F)c3)ccc21 [Compound 729] | 1 to 25 | > 200 | – |
| CCN1C(=O)CCN(C(=O)Nc2ccccn2)c2nc(-c3cccc(Cl)c3)ccc21 [Compound 765, 7-(3-chlorophenyl)-1-ethyl-2-oxo-N-(pyridin-2-yl)-3,4-dihydro-1H-pyrido[2,3-b][1,4]diazepine-5(2H)-carboxamide] | > 25 | ≤ 200 | – |
| Cc1ccc(-c2ccc3c(n2)N(C(=O)Nc2cccc(OC[C@H](O)CO)n2)CCO3)cn1 [Compound 694] | – | > 200 | B (EC1.5 1-25 μM) |
| O=C(Nc1ccncc1)N1CCOc2c(N3CCCC3)nc(-c3cccc(F)c3)nc21 [Compound 737] | > 25 | ≤ 200 | – |
| CN1C(=O)CN(C(=O)Nc2ncn[nH]2)c2nc(-c3cccc(C(F)(F)F)c3)ccc21 [Compound 524] | – | ≤ 200 | C (EC1.5>25 μM) |
| O=C(Nc1c(F)c(F)c(F)c(F)c1F)N1CCCOc2ccc(-c3cccc(C(F)(F)F)c3)nc21 [Compound 693] | – | ≤ 200 | C (EC1.5>25 μM) |
| Cc1cc(-c2cccc(Cl)c2)nc2c1OCCN2C(=O)Nc1ccncn1 [Compound 685] | – | > 200 | A (EC1.5<1.0 μM) |
| O=C(Nc1ccncc1)N1CCCOc2ccc(-c3cccc(C(F)(F)F)c3)nc21 [Compound 558, N-(pyridin-4-yl)-7-(3-(trifluoromethyl)phenyl)-3,4-dihydropyrido[3,2-b][1,4]oxazepine-5(2H)-carboxamide] | – | > 200 | B (EC1.5 1-25 μM) |
| O=C(Nc1cncnc1)N1CCC(F)(F)c2ccc(-c3cccc(C(F)(F)F)c3)nc21 [Compound 753] | 1 to 25 | > 200 | – |

The remaining lines, values ahead:

| EC1.5 (concentration giving 1.5-fold activation) [µM] | Emax [%] | EC1.5 | SMILES |
| --- | --- | --- | --- |
| < 1 | > 200 | – | CC1CCN(C(=O)Nc2cncnc2)c2nc(-c3cccc(C(F)(F)F)c3)ccc21 (centres unmarked) [Compound 802] |
| > 25 | ≤ 200 | – | O=C(Nc1ccc(F)cn1)N1CCCC(F)(F)c2ccc(-c3cccc(Cl)c3)nc21 [Compound 798] |
| 1 to 25 | ≤ 200 | – | Cc1cc(OCC(O)CO)nc(NC(=O)N2CCC(F)(F)c3ccc(-c4cccc(C(F)(F)F)c4)nc32)n1 (centres unmarked) [Compound 824] |
| > 25 | ≤ 200 | – | CCN1CCCN(C(=O)Nc2cc(C)cc(C)n2)c2nc(-c3cccc(Cl)c3)ccc21 [Compound 806] |
| > 25 | ≤ 200 | – | CCN1C(=O)CCN(C(=O)Nc2ccncc2F)c2nc(-c3cccc(Cl)c3)ccc21 [Compound 774] |
| 1 to 25 | ≤ 200 | – | O=C(Nc1ncccc1F)N1CCC(F)(F)c2ccc(-c3cccc(C(F)(F)F)c3)nc21 [Compound 822] |
| 1 to 25 | > 200 | – | O=C(Nc1ccncc1)N1CCCCc2ccc(-c3cccc(C(F)(F)F)c3)nc21 [Compound 810] |
| 1 to 25 | > 200 | – | CC1(C)CCN(C(=O)Nc2cncnc2)c2nc(-c3cccc(C(F)(F)F)c3)ccc21 [Compound 835] |
| > 25 | ≤ 200 | – | Cc1cc(C)nc(NC(=O)N2CCCOc3ccc(-c4cccc(Cl)c4)nc32)c1 [Compound 857] |
| > 25 | ≤ 200 | – | Cc1cccc(NC(=O)N2CCCC(F)(F)c3ccc(-c4cccc(Cl)c4)nc32)n1 [Compound 780] |
| 1 to 25 | ≤ 200 | – | O=C1NCc2cccc(NC(=O)N3CCCOc4ccc(-c5cccc(Cl)c5)nc43)c21 [Compound 885] |
| 1 to 25 | ≤ 200 | – | O=C(Nc1ccncn1)N1CCCC(F)(F)c2ccc(-c3cccc(Cl)c3)nc21 [Compound 799, 2-(3-chlorophenyl)-5,5-difluoro-N-(pyrimidin-4-yl)-7,8-dihydro-5H-pyrido[2,3-b]azepine-9(6H)-carboxamide] |
| 1 to 25 | > 200 | – | O=C(Nc1ncccn1)N1CCCOc2ccc(-c3cccc(Cl)c3)nc21 [Compound 865] |
